Drawing on ChEMBL document CHEMBL1821715, “Synthesis, characterization and pharmacological activity of 4-{[1-substituted aminomethyl-4-arylideneamino-5-sulfanyl-4,5-dihydro-1H-1,2,4-triazol-3-yl]methyl}-2H-1,4-benzothiazin-3(4H)-ones” (2011), this text covers Activity and Time for twelve compounds.

Assay type in all cases: functional
The test system of experiment [1] is Rattus norvegicus. As to the kind of experiment: Antiinflammatory activity in Wistar albino rat assessed as reduction of carrageenan-induced paw volume at 20 mg/kg, po administered 30 mins before carrageenan challenge measured after 1 hr relative to control. Also noted: scale not given: the % may be the effect or the level left. (Carrageenan injected into the paw causes an acute inflammation.)

Experiment [2] concerns Rattus norvegicus. Description: Analgesic activity in Wistar albino rat assessed as reaction time required for tail flicking at 20 mg/kg after 30 mins by tail-flick method relative to control.
For experiment [3], the system named is Rattus norvegicus. As to the kind of experiment: Analgesic activity in Wistar albino rat assessed as reaction time required for tail flicking at 20 mg/kg after 60 mins by tail-flick method relative to control. (In general: In hot-plate and tail-flick tests a longer latency is read as antinociception.)
Experiment [4] relates to Rattus norvegicus. Description: Analgesic activity in Wistar albino rat assessed as reaction time required for tail flicking at 20 mg/kg after 90 mins by tail-flick method relative to control.
Experiment [5] has as its system Rattus norvegicus. As to the kind of experiment: Antiinflammatory activity in Wistar albino rat assessed as reduction of carrageenan-induced paw volume at 20 mg/kg, po administered 30 mins before carrageenan challenge measured after 2 hrs relative to control. Also noted: scale not given: the % may be the effect or the level left.
Experiment [6] relates to Rattus norvegicus. As to the kind of experiment: Antiinflammatory activity in Wistar albino rat assessed as reduction of carrageenan-induced paw volume at 20 mg/kg, po administered 30 mins before carrageenan challenge measured after 0.5 hr relative to control. Also noted: scale not given: the % may be the effect or the level left.

Consider `O=C(O)CN1C(=O)CSc2ccccc21`, for which the figures for the Activity in the experiment on Rattus norvegicus [1], with Rattus norvegicus [5] and in the experiment with Rattus norvegicus [6] were 30.07%, 27.93% and 38.51%, respectively. The Time in the experiment on Rattus norvegicus [2] is 5.775 s; with Rattus norvegicus [3], 6.5 s; in the experiment on Rattus norvegicus [4], 6.875 s.

As to `CN1CCN(Cn2nc(CN3C(=O)CSc4ccccc43)n(/N=C/c3ccccc3)c2=S)CC1`, the Activity in the experiment with Rattus norvegicus [1] was 9.8%; with Rattus norvegicus [5] it was 10.39%; in the experiment with Rattus norvegicus [6], 8.1%. Besides, the Time is reported as 3.5 s in the experiment on Rattus norvegicus [2], 4.3 s in the experiment with Rattus norvegicus [3] and 4.225 s in the experiment with Rattus norvegicus [4].

Regarding `O=C1CSc2ccccc2N1Cc1nn(CN2CCOCC2)c(=S)n1/N=C/c1ccccc1`, the Activity with Rattus norvegicus [1] was found to be 10.13%; in the experiment on Rattus norvegicus [5], 10.39%; in the experiment with Rattus norvegicus [6], 5.4%. Also, the Time amounted to 3.175 s with Rattus norvegicus [2], 3.375 s in the experiment on Rattus norvegicus [3] and 3.4 s in the experiment on Rattus norvegicus [4].

As to `O=C1CSc2ccccc2N1Cc1nn(CN2CCCCC2)c(=S)n1/N=C/c1ccccc1`, the Activity amounted to 41.18% in the experiment on Rattus norvegicus [1], 41.23% in the experiment on Rattus norvegicus [5] and 40.21% in the experiment with Rattus norvegicus [6]. Also, the Time in the experiment on Rattus norvegicus [2] is recorded as 3.925 s; in the experiment with Rattus norvegicus [3] it was 5.3 s; with Rattus norvegicus [4] it was 5.5 s.

Turning to `CN1CCN(Cn2nc(CN3C(=O)CSc4ccccc43)n(/N=C/c3ccc([N+](=O)[O-])cc3)c2=S)CC1`, the Activity is 40.53% in the experiment with Rattus norvegicus [1], 37.34% in the experiment on Rattus norvegicus [5] and 33.11% in the experiment with Rattus norvegicus [6]. The Time in the experiment with Rattus norvegicus [2] came to 5.475 s; in the experiment on Rattus norvegicus [3], 5.975 s; in the experiment on Rattus norvegicus [4] it was 6.05 s.

For the compound `O=C1CSc2ccccc2N1Cc1nn(CN2CCOCC2)c(=S)n1/N=C/c1ccc([N+](=O)[O-])cc1`, the Activity is 42.16% with Rattus norvegicus [1], 31.82% with Rattus norvegicus [5] and 37.84% in the experiment with Rattus norvegicus [6]. The Time with Rattus norvegicus [2] amounted to 5.425 s; in the experiment with Rattus norvegicus [3] it was 6.05 s; in the experiment on Rattus norvegicus [4], 6.025 s.

With `O=C1CSc2ccccc2N1Cc1nn(CN2CCCCC2)c(=S)n1/N=C/c1ccc([N+](=O)[O-])cc1`, the Activity in the experiment on Rattus norvegicus [1] was 55.56%; with Rattus norvegicus [5], 58.77%; with Rattus norvegicus [6], 52.71%. Moreover, the Time in the experiment with Rattus norvegicus [2] was determined as 5.1 s; in the experiment on Rattus norvegicus [3] it was 5.3 s; in the experiment on Rattus norvegicus [4], 4.875 s.

For `CN1CCN(Cn2nc(CN3C(=O)CSc4ccccc43)n(/N=C/c3ccc(Cl)cc3)c2=S)CC1`, the Activity in the experiment with Rattus norvegicus [1] was 44.12%; in the experiment with Rattus norvegicus [5], 42.86%; with Rattus norvegicus [6], 38.51%. For the same compound, the Time is given as 4.575 s in the experiment on Rattus norvegicus [2], 5.375 s in the experiment on Rattus norvegicus [3] and 5 s in the experiment with Rattus norvegicus [4].

Consider `O=C1CSc2ccccc2N1Cc1nn(CN2CCOCC2)c(=S)n1/N=C/c1ccc(Cl)cc1`, for which the Activity in the experiment on Rattus norvegicus [1] turned out to be 32.35%; in the experiment with Rattus norvegicus [5], 29.55%; in the experiment with Rattus norvegicus [6] it was 28.04%. Further, the Time is 4.8 s with Rattus norvegicus [2], 4.875 s with Rattus norvegicus [3] and 4.075 s with Rattus norvegicus [4].

In the case of `O=C1CSc2ccccc2N1Cc1nn(CN2CCOCC2)c(=S)n1/N=C/c1ccc(O)cc1`, the values for the Activity in the experiment with Rattus norvegicus [1], in the experiment with Rattus norvegicus [5] and in the experiment on Rattus norvegicus [6] were 45.1%, 38.97% and 53.38%, respectively. In addition, the results for the Time in the experiment with Rattus norvegicus [2], in the experiment with Rattus norvegicus [3] and in the experiment with Rattus norvegicus [4] were 4.3 s, 5 s and 6 s, respectively.

With `CC(C)=CCN1CC[C@]2(C)c3cc(O)ccc3C[C@H]1[C@H]2C` [(+)-PENTAZOCINE], the Time is recorded as 6.4 s in the experiment on Rattus norvegicus [2], 7.175 s with Rattus norvegicus [3] and 7.45 s with Rattus norvegicus [4].

As to `COc1ccc2c(c1)c(CC(=O)O)c(C)n2C(=O)c1ccc(Cl)cc1` [INDOMETHACIN], the Activity amounted to 70.26% in the experiment on Rattus norvegicus [1], 69.81% with Rattus norvegicus [5] and 66.89% with Rattus norvegicus [6].
